US10870652B2, “Compounds and methods for modulating bruton's tyrosine kinase” (CORVUS PHARMACEUTICALS, INC., priority 2016, dated 2020)

How the values were obtained:
Format in all cases: biochemical
ITK = target: T1, ITK (Homo sapiens, UniProt Q08881); assay: ITK IC50 kinase inhibition assay
T1 sequence (Q08881 1-620): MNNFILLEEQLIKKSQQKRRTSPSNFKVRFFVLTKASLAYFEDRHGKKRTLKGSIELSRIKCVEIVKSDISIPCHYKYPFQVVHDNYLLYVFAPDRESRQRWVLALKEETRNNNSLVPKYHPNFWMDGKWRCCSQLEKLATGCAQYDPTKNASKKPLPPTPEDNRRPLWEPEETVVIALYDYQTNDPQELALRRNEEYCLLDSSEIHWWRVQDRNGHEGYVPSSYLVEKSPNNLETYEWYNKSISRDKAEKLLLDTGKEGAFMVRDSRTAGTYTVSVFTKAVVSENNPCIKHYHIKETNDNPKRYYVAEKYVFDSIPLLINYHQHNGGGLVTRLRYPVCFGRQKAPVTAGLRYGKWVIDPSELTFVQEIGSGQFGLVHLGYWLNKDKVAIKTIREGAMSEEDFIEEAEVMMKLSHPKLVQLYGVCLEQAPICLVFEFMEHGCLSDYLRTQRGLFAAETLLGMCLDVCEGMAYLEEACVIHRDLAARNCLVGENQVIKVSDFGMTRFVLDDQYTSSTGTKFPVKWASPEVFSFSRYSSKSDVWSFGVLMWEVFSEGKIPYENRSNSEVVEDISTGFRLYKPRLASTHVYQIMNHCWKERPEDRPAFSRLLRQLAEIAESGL

BTK = BTK (Homo sapiens, UniProt Q06187); assay: BTK IC50 kinase inhibition assay
Chain of BTK (Q06187 whole entry): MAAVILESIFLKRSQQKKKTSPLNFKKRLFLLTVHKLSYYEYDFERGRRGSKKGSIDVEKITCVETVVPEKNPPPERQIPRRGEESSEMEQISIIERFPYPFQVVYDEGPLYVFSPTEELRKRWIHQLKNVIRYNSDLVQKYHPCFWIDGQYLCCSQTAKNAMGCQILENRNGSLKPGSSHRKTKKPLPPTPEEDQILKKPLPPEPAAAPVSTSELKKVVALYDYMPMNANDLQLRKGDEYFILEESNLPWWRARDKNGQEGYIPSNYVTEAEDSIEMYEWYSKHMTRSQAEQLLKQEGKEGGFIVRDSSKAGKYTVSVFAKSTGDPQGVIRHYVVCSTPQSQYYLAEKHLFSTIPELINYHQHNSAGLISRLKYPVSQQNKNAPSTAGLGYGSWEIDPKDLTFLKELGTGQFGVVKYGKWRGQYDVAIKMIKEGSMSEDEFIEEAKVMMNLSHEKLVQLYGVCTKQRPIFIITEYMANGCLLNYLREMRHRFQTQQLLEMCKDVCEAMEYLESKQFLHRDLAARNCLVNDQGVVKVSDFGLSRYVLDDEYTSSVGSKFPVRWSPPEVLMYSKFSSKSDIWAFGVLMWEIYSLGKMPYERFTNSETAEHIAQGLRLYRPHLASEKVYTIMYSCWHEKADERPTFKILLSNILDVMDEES

JAK3 = target: T2, JAK3 (Homo sapiens, UniProt P52333); assay: JAK3 IC50 kinase inhibition assay
T2 sequence (P52333 1-1124): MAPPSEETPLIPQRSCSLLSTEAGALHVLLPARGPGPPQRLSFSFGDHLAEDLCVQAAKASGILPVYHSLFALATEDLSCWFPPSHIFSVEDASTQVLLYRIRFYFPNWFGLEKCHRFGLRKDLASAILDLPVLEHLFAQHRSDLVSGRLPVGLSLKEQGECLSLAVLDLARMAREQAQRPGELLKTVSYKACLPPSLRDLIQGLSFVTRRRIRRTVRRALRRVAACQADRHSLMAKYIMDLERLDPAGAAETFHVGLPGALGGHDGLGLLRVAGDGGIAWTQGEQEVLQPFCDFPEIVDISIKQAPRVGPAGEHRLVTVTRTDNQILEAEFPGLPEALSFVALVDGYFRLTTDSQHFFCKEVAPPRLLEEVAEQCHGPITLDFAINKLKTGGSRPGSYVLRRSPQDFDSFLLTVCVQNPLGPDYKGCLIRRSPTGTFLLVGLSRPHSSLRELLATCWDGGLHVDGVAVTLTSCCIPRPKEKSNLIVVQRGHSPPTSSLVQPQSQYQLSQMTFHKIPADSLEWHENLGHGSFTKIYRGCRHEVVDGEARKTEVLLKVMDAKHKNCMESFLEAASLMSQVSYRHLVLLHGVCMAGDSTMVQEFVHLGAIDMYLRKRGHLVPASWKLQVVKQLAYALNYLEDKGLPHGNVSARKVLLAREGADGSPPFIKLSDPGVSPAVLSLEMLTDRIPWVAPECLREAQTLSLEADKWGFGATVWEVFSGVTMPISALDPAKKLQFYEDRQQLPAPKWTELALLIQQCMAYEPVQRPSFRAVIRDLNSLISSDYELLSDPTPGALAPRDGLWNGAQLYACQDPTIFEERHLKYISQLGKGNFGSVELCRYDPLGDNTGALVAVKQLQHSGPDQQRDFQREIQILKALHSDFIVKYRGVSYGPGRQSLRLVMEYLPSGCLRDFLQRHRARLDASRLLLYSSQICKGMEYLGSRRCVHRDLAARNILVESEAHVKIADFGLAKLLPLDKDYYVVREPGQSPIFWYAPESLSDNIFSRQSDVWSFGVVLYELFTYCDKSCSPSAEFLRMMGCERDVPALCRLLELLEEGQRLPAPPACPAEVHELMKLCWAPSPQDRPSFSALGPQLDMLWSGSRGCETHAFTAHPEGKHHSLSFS

TXK = target: T3, TXK (Homo sapiens, UniProt P42681); assay: TXK IC50 kinase inhibition assay
T3 sequence (P42681 1-527): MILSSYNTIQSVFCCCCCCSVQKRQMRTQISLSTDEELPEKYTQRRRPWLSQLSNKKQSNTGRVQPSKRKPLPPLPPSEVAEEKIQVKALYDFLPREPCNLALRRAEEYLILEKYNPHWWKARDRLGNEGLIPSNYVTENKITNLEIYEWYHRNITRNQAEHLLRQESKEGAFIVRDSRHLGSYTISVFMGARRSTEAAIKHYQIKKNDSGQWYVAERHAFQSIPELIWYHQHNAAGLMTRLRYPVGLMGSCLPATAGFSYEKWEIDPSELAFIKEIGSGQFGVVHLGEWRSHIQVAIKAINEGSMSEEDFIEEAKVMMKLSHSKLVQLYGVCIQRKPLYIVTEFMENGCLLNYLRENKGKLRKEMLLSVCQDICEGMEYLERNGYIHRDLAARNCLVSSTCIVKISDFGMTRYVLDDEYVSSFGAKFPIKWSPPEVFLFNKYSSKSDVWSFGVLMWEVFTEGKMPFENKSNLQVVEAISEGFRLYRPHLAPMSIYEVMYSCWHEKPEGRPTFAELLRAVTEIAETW

| Compound | IC50 (ITK) [nM] | IC50 (BTK) [nM] | IC50 (JAK3) [nM] | IC50 (TXK) [nM] |
| --- | --- | --- | --- | --- |
| C=CC(=O)N1CC[C@@H](n2nc(-c3ccc(Oc4ccccc4)cc3)c3cncnc32)C1 [Compound A6, (R)-1-(3-(3-(4-phenoxyphenyl)-1H-pyrazolo[3,4-d]pyrimidin-1-yl)pyrrolidin-1-yl)prop-2-en-1-one] | > 500 | < 100 | > 500 | < 100 |
| C=CC(=O)N1CCC[C@@H]1Cn1nc(-c2ccc(Oc3ccccc3)cc2)c2cncnc21 [Compound A7, (R)-1-(2-((3-(4-phenoxyphenyl)-1H-pyrazolo[3,4-d]pyrimidin-1-yl)methyl)pyrrolidin-1-yl)prop-2-en-1-one] | > 500 | < 100 | > 500 | 100 to 500 |
| C=CC(=O)N1CCC[C@H]1Cn1nc(-c2ccc(Oc3ccccc3)cc2)c2cncnc21 [Compound A8, (S)-1-(2-((3-(4-phenoxyphenyl)-1H-pyrazolo[3,4-d]pyrimidin-1-yl)methyl)pyrrolidin-1-yl)prop-2-en-1-one] | > 500 | < 100 | > 500 | < 100 |
| C=CC(=O)N1CC[C@H](n2nc(-c3ccc(Oc4ccccc4)cc3)c3cncnc32)C1 [Compound A12, (S)-1-(3-(3-(4-phenoxyphenyl)-1H-pyrazolo[3,4-d]pyrimidin-1-yl)pyrrolidin-1-yl)prop-2-en-1-one] | > 500 | < 100 | > 500 | 100 to 500 |
| C=CC(=O)N1CC(n2nc(-c3ccc(Oc4ccccc4)cc3)c3cncnc32)C1 [Compound A13, 1-(3-(3-(4-phenoxyphenyl)-1H-pyrazolo[3,4-d]pyrimidin-1-yl)azetidin-1-yl)prop-2-en-1-one] | > 500 | 100 to 500 | > 500 | 100 to 500 |

Results, then the compound that gave them:

| IC50 (ITK) [nM] | IC50 (BTK) [nM] | IC50 (JAK3) [nM] | IC50 (TXK) [nM] | Compound |
| --- | --- | --- | --- | --- |
| > 500 | < 100 | > 500 | 100 to 500 | C=CC(=O)N1CCC[C@@H](n2nc(-c3cccc(Oc4ccccc4)c3)c3cncnc32)C1 [Compound A1, (R)-1-(3-(3-(3-phenoxyphenyl)-1H-pyrazolo[3,4-d]pyrimidin-1-yl)piperidin-1-yl)prop-2-en-1-one] |
| > 500 | < 100 | 100 to 500 | < 100 | C=CC(=O)N1CCC[C@@H](n2nc(-c3ccc(Oc4ccccc4)cc3F)c3cncnc32)C1 [Compound A2, (R)-1-(3-(3-(2-fluoro-4-phenoxyphenyl)-1H-pyrazolo[3,4-d]pyrimidin-1-yl)piperidin-1-yl)prop-2-en-1-one] |
| > 500 | < 100 | > 500 | < 100 | C=CC(=O)N1CCC[C@@H](n2nc(-c3ccc(Oc4ccccc4)c(F)c3)c3cncnc32)C1 [Compound A3, (R)-1-(3-(3-(3-fluoro-4-phenoxyphenyl)-1H-pyrazolo[3,4-d]pyrimidin-1-yl)piperidin-1-yl)prop-2-en-1-one] |
| > 500 | < 100 | > 500 | < 100 | C=CC(=O)N1CCC[C@@H](n2nc(-c3ccc(Oc4ccccc4)cc3C)c3cncnc32)C1 [Compound A4, (R)-1-(3-(3-(2-methyl-4-phenoxyphenyl)-1H-pyrazolo[3,4-d]pyrimidin-1-yl)piperidin-1-yl)prop-2-en-1-one] |
| > 500 | < 100 | > 500 | 100 to 500 | C=CC(=O)N1CCC[C@@H](n2nc(-c3ccc(Oc4ccccc4)c(C)c3)c3cncnc32)C1 [Compound A5, (R)-1-(3-(3-(3-methyl-4-phenoxyphenyl)-1H-pyrazolo[3,4-d]pyrimidin-1-yl)piperidin-1-yl)prop-2-en-1-one] |
| > 500 | < 100 | > 500 | < 100 | C=CC(=O)N1CCC[C@@H](n2nc(-c3ccc(Oc4ccccc4)cc3)c3cncnc32)C1 [Compound A9, (R)-1-(3-(3-(4-phenoxyphenyl)-1H-pyrazolo[3,4-d]pyrimidin-1-yl)piperidin-1-yl)prop-2-en-1-one] |
